# Tests used:
# grasses = test: herbicidal activity against grasses, applied in aqueous solution; type: in vivo; conditions: applied in an aqueous solution at 500-2000 ppm
# [1] = general herbicidal character (selective or non-selective); conditions: in vivo
# broad leaved weeds = test: herbicidal activity against broad leaved weeds, applied in aqueous solution; type: in vivo; conditions: applied in an aqueous solution at 500-2000 ppm
# [2] = system: glufosinate-resistant corn; test: crop selectivity; type: in vivo; conditions: aqueous solution at 500-2000 ppm
Structure (SMILES),herbicidal activity against grasses (grasses),herbicide selectivity (general) [1],herbicidal activity against broad leaved weeds (broad leaved weeds),selectivity to crop [2]
CP(=O)(O)CCC(N)C(=O)Oc1c(Cl)cnc(Cl)c1Cl (racemic) [Example 2],active,powerful non-selective herbicide,active,–
"CP(=O)(O)CCC(N)C(=O)Oc1cc(Cl)nnc1-c1ccccc1 (racemic) [Example 1, 6-chloro-3-phenylpyridazin-4-yl 4-[hydroxyl(methyl)phosphinoyl]-DL-alaninate]",active,–,active,selective

# — patent US20080114168A1, “Novel esters as useful broad spectrum herbicidal compounds” (priority 2004, published 2008)
